Columns and labels:
[1] = Proof of concept pharmacokinetic / bioavailability study, plasma mitragynine after single dose; assay type: in vivo, Sprague Dawley rats; details: male rats
Method: Once the capsule formulation was finalized, a proof of concept and safety study was carried out in Sprague Dawley rats. Male and female rats (250±25 g) were purchased from Envigo (Indianapolis, IN, USA) with indwelling jugular vein cannulas and acclimated ≥72 h in a temperature- and humidity-controlled vivarium on a 12 h light/dark cycle. Study protocols were approved by the Institutional Animal Care and Use Committee (IACUC) at the University of Florida, which is fully accredited by the Association for Assessment and Accreditation of Laboratory Animal Care International (AAALAC) and were written in accordance with the National Institutes of Health (NIH) Guide for the Care and Use of Laboratory Animals.
Rats were fasted for 10 h prior to dosing and an additional 2 h post-dose. Rats were dosed with one size 9 gelatin capsule with fill weights of 19.5±0.5 mg, (about 5.1 mg kratom or 2.3 mg mitragynine). […] Rats were connected to an automatic blood collection system (Bioanalytical Systems Inc., West Lafayette, IN, USA) and blood samples were taken at pre-dose, 0.08, 0.17, 0.25, 0.5, 0.75, 1, 2, 4, 6, 8, 12, 18, and 24 h. At the completion of the study, plasma samples were separated by centrifugation at 850×g for 10 min at 4° C. and stored at −20° C. until analysis.
To process plasma (rat or dog) samples for analysis, 20 μL aliquots of each sample were taken. To prepare calibration standards (CS), 2.0 μL of mix stock were added to 18 μL of blank plasma. This generated eight standards of 2.5, 5, 25, 50, 100, 150, 250, and 500 ng/mL, in the respective plasma. The same process was used to generate the lower limit of quantification (LLOQ) (2.5 ng/mL), low quality control (LQC) (6.25 ng/mL), medium quality control MQC (200 ng/mL) and high quality control (HQC) (400 ng/mL). After spiking, the CS and QC samples were vortex mixed for 5 min at 650 rpm. Analytes were precipitated using 100 μL methanol acidified with 0.05% formic acid containing 50 ng/mL IS in a 1:4 ratio. The samples were then vortex mixed for 5 min at 650 rpm before being transferred to a 96-well Millipore Solvinert 0.45 μm filter plate (Burlington, MA, USA) and centrifuged at 850×g for 2 min at 4° C.
A previously reported UPLC-MS/MS method for the quantification of eleven kratom alkaloids was used to analyze all samples^13. Briefly, the mobile phase composed of aqueous ammonium acetate buffer (2.5 mM, pH 3.5, (A)) and acetonitrile (B). The gradient started at 90% A and 10% B, and A was decreased to 75% by 3.5 min and then to 60% by 10 min. […] An Acquity UPLC® BEH C18 column (1.7 μm, 2.1×100 mm) with a VanGuard precolumn of the same chemistry was used for separation (Waters, Milford, MA, USA). The UPLC-MS/MS was a Waters™ Acquity Class-I chromatograph coupled with a Xevo TQ-S Micro triple quadrupole mass spectrometer (Waters, Milford, MA, USA).
The TargetLynx™ application of MassLynx™ 4.2 was used for data processing and quantification of the UPLC-MS/MS data (Waters, Milford, MA, USA). Phoenix Version 6.4 (Certara, Princeton, NJ, USA) was used for the non-compartmental analysis using a linear log interpolation. Graphpad Prism Version 8 (GraphPad Software, San Diego, CA, USA) was used to plot the concentration-time profiles for each dataset. R Studio version 1.4.1717 was used for statistical analysis (R Foundation for Statistical Computing, Vienna, Austria).

[2] = single oral dose of 5 mg/kg mitragynine equivalent; female beagle dogs; cited from earlier work
[3] = rats; delivered as a purified aqueous solution; cited from earlier work
[4] = mitragynine in plasma, oral 20 mg/kg

CC[C@@H]1CN2CCc3c([nH]c4cccc(OC)c34)[C@@H]2C[C@@H]1/C(=C\OC)C(=O)OC [Mitragynine, mitragynine]
Tmax ([1]; Sprague Dawley, rat, in vivo, mitragynine in plasma, oral 20 mg/kg): 24 ± 6 min
bioavailability ([1]; Sprague Dawley, rat, in vivo, mitragynine, oral 20 mg/kg): 37%
AUC/Dose ([1]; mitragynine in plasma, IV […]): 335 ± 16.5 µg·h/L/mg/kg
AUC/Dose [1, 4]: 122.4 ± 13.0 µg·h/L/mg/kg
Cmax/Dose [1, 4]: 22.7 ± 4.9 µg/L/mg/kg
tolerability [2]: well tolerated
bioavailability of mitragynine [3]: 17%

From patent US20260151446A1, “IMPROVED ORAL BIOAVAILABILITY FORMULATION FOR MITRAGYNA SPECIOSA (KRATOM)” (priority 2022, published 2026)
